# According to US20250041429A1, “COMPOUND HAVING BTK PROTEIN DEGRADATION ACTIVITY, AND MEDICAL USES THEREOF” (UBIX THERAPEUTICS, INC., priority 2021, published 2025):
# Target: T1, BTK protein (Homo sapiens, UniProt Q06187)
# T1 construct: endogenous in cells; host or cells: TMD-8 cells
# Assay: Measurement of BTK protein degradation ability in TMD-8 cells (Western blotting)
# Type: cell-based
# Conditions: harvested after 24 hours; for BTK degradation (%) 1 nM: compound 1 nM; for BTK degradation (%) 10 nM: compound 10 nM; for BTK degradation (%) 100 nM: compound 100 nM
# Summary of the method: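 BTK levels were measured by immunoblotting of equal-protein RIPA lysates, normalized to GAPDH or β-actin, with chemiluminescent or infrared detection. Lysates came from TMD-8 cells exposed to compound for 24 h at final concentrations of 0.1, 1, 10 μM or 0.0001–0.1 μM, against a DMSO control.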
# T1 sequence (Q06187 whole entry): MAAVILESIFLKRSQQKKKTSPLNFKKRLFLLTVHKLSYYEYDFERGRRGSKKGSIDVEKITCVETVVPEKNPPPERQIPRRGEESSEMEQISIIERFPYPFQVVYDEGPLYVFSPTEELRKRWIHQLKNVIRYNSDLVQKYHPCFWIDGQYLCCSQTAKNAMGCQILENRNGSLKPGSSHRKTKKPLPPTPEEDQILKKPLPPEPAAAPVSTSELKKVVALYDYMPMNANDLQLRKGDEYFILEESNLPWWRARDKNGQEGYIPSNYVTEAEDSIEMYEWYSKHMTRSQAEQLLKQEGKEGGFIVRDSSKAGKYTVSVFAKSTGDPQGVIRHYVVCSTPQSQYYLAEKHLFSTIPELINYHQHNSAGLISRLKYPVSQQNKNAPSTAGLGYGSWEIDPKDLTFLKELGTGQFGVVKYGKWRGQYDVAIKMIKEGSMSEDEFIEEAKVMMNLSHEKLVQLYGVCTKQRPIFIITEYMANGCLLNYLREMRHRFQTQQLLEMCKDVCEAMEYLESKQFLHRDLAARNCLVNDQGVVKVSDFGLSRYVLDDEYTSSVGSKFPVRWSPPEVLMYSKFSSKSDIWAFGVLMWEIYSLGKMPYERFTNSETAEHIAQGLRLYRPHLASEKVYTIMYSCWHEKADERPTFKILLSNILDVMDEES
SMILES,BTK degradation (%) 1 nM [%],BTK degradation (%) 10 nM [%],BTK degradation (%) 100 nM [%]
"Cc1cc(-c2ccnc(Nc3ccc(N4CCN(CC5CCN(c6ccc(OC7CCC(=O)NC7=O)cc6)CC5)CC4)cc3)n2)ccc1CNC(=O)N1CC(OC(C)C)C1 (stereo not shown) [Example 43, N-(4-(2-((4-(4-((1-(4-((2,6-dioxopiperidin-3-yl)oxy)phenyl)piperidin-4-yl)methyl)piperazin-1-yl)phenyl)amino)pyrimidin-4-yl)-2-methylbenzyl)-3-isopropoxyazetidine-1-carboxamide]",83.0,100.0,100.0
"Cc1cc(-c2ccnc(Nc3ccc(CN4CCN(CC5CCN(c6cccc(OC7CCC(=O)NC7=O)c6)CC5)CC4)cc3)n2)ccc1CNC(=O)N1CC(OC(C)C)C1 (stereo not shown) [Example 63, N-(4-(2-((4-((4-((1-(3-((2,6-dioxopiperidin-3-yl)oxy)phenyl)piperidin-4-yl)methyl)piperazin-1-yl)methyl)phenyl)amino)pyrimidin-4-yl)-2-methylbenzyl)-3-isopropoxyazetidine-1-carboxamide]",29.0,83.0,97.5
"Cc1cc(-c2ccnc(Nc3ccc(N4CCN(CC5CCN(c6ccc7c(c6)C(=O)N(C6CCC(=O)NC6=O)C7=O)CC5)CC4)cc3)n2)ccc1CNC(=O)c1cnn(C(C)C)c1 (stereo not shown) [Example 33, N-(4-(2-((4-(4-((1-(2-(2,6-dioxopiperidin-3-yl)-1,3-dioxoisoindolin-5-yl)piperidin-4-yl)methyl)piperazin-1-yl)phenyl)amino)pyrimidin-4-yl)-2-methylbenzyl)-1-isopropyl-1H-pyrazole-4-carboxamide]",49.5,93.5,99.5
"Cc1c(NC(=O)c2cnn(C(C)(C)C)c2)cc(F)cc1-c1ccnc(Nc2ccc3c(c2)CN(CC2CCN(c4ccc5c(c4)C(=O)N(C4CCC(=O)NC4=O)C5=O)CC2)CC3)n1 (stereo not shown) [Example 5, 1-(tert-butyl)-N-(3-(2-((2-((1-(2-(2,6-dioxopiperidin-3-yl)-1,3-dioxoisoindolin-5-yl)piperidin-4-yl)methyl)-1,2,3,4-tetrahydroisoquinolin-7-yl)amino)pyrimidin-4-yl)-5-fluoro-2-methylphenyl)-1H-pyrazole-4-carboxamide]",,−12,−7
"Cc1cc(-c2ccnc(Nc3cnn(C4CCN(CC5CCN(c6ccc7c(c6)C(=O)N(C6CCC(=O)NC6=O)C7=O)CC5)CC4)c3)n2)ccc1CNC(=O)N1CC(OC(C)C)C1 (stereo not shown) [Example 21, N-(4-(2-((1-(1-((1-(2-(2,6-dioxopiperidin-3-yl)-1,3-dioxoisoindolin-5-yl)piperidin-4-yl)methyl)piperidin-4-yl)-1H-pyrazol-4-yl)amino)pyrimidin-4-yl)-2-methylbenzyl)-3-isopropoxyazetidine-1-carboxamide]",70,96.5,99
"Cc1cc(-c2ccnc(Nc3ccc(C4CCN(CC5CN(c6ccc7c(c6)C(=O)N(C6CCC(=O)NC6=O)C7=O)C5)CC4)cc3)n2)ccc1CNC(=O)c1cnn(C(C)C)c1 (stereo not shown) [Example 44, N-(4-(2-((4-(1-((1-(2-(2,6-dioxopiperidin-3-yl)-1,3-dioxoisoindolin-5-yl)azetidin-3-yl)methyl)piperidin-4-yl)phenyl)amino)pyrimidin-4-yl)-2-methylbenzyl)-1-isopropyl-1H-pyrazole-4-carboxamide]",66.0,95.0,99.0
"Cc1c(NC(=O)c2cnn(C(C)(C)C)c2)cc(F)cc1-c1ccnc(Nc2ccc(N3CCN(CC4CCN(c5ccc6c(c5)C(=O)N(C5CCC(=O)NC5=O)C6=O)CC4)CC3)cc2)n1 (stereo not shown) [Example 24, 1-(tert-butyl)-N-(3-(2-((4-(4-((1-(2-(2,6-dioxopiperidin-3-yl)-1,3-dioxoisoindolin-5-yl)piperidin-4-yl)methyl)piperazin-1-yl)phenyl)amino)pyrimidin-4-yl)-5-fluoro-2-methylphenyl)-1H-pyrazole-4-carboxamide]",,6.5,20
"Cc1cc(-c2ccnc(Nc3ccc(C4CCN(CC5CCN(c6ccc7c(c6)C(=O)N(C6CCC(=O)NC6=O)C7=O)CC5)CC4)cc3)n2)ccc1CNC(=O)N1CC(OC(C)C)C1 (stereo not shown) [Example 15, N-(4-(2-((4-(1-((1-(2-(2,6-dioxopiperidin-3-yl)-1,3-dioxoisoindolin-5-yl)piperidin-4-yl)methyl)piperidin-4-yl)phenyl)amino)pyrimidin-4-yl)-2-methylbenzyl)-3-isopropoxyazetidine-1-carboxamide]",56.5,95.5,99
"Cc1cc(-c2ccnc(Nc3ccc(N4CCN(CC5CCN(C(=O)c6cccc(NC7CCC(=O)NC7=O)c6)CC5)CC4)cc3)n2)ccc1CNC(=O)c1cnn(C(C)(C)C)c1 (stereo not shown) [Example 95, 1-(tert-butyl)-N-(4-(2-((4-(4-((1-(3-((2,6-dioxopiperidin-3-yl)amino)benzoyl)piperidin-4-yl)methyl)piperazin-1-yl)phenyl)amino)pyrimidin-4-yl)-2-methylbenzyl)-1H-pyrazole-4-carboxamide]",67.5,94.5,98.0
"Cc1cc(-c2ccnc(Nc3ccc(N4CCN(CC5CCN(c6ccc(NC7CCC(=O)NC7=O)cn6)CC5)CC4)cc3)n2)ccc1CNC(=O)N1CC(OC(C)C)C1 (stereo not shown) [Example 52, N-(4-(2-((4-(4-((1-(5-((2,6-dioxopiperidin-3-yl)amino)pyridin-2-yl)piperidin-4-yl)methyl)piperazin-1-yl)phenyl)amino)pyrimidin-4-yl)-2-methylbenzyl)-3-isopropoxyazetidine-1-carboxamide]",24.0,92.0,99.3
"Cc1cc(-c2ccnc(Nc3ccc(N4CCN(CC5CCN(c6cccc(NC7CCC(=O)NC7=O)c6)CC5)CC4)cc3)n2)ccc1CNC(=O)N1CC(OC(C)C)C1 (stereo not shown) [Example 54, N-(4-(2-((4-(4-((1-(3-((2,6-dioxopiperidin-3-yl)amino)phenyl)piperidin-4-yl)methyl)piperazin-1-yl)phenyl)amino)pyrimidin-4-yl)-2-methylbenzyl)-3-isopropoxyazetidine-1-carboxamide]",38.7,95.0,99.7

# Next, values leading:
BTK degradation (%) 1 nM [%],BTK degradation (%) 10 nM [%],BTK degradation (%) 100 nM [%],SMILES
41.5,91.0,99.5,"Cc1cc(-c2ccnc(Nc3ccc(N4CCC(CN5CCC(c6ccc(OC7CCC(=O)NC7=O)cc6)CC5)CC4)cc3)n2)ccc1CNC(=O)N1CC(OC(C)C)C1 (stereo not shown) [Example 119, N-(4-(2-((4-(4-((4-(4-((2,6-dioxopiperidin-3-yl)oxy)phenyl)piperidin-1-yl)methyl)piperidin-1-yl)phenyl)amino)pyrimidin-4-yl)-2-methylbenzyl)-3-isopropoxyazetidine-1-carboxamide]"
67.5,94.0,98.5,Cc1cc(-c2ccnc(Nc3ccc(N4CCN(CC5CCN(C(=O)c6cccc(NC7CCC(=O)NC7=O)c6)CC5)CC4)cc3)n2)ccc1CNC(=O)c1cn(C(C)(C)C)nn1 (stereo not shown) [Example 97]
28.0,77.0,98.5,"Cc1cc(-c2ccnc(Nc3ccc(N4CCC(CN5CCC(c6ccc(OC7CCC(=O)NC7=O)cc6)CC5)CC4)nc3)n2)ccc1CNC(=O)N1CC(OC(C)C)C1 (stereo not shown) [Example 144, N-(4-(2-((6-(4-((4-(4-((2,6-dioxopiperidin-3-yl)oxy)phenyl)piperidin-1-yl)methyl)piperidin-1-yl)pyridin-3-yl)amino)pyrimidin-4-yl)-2-methylbenzyl)-3-isopropoxyazetidine-1-carboxamide]"
40.5,91.0,98.0,"Cc1cc(-c2ccnc(Nc3ccc(C4CCN(CC5CN(C(=O)c6cccc(NC7CCC(=O)NC7=O)c6)C5)CC4)cc3)n2)ccc1CNC(=O)N1CC(OC(C)C)C1 (stereo not shown) [Example 100, N-(4-(2-((4-(1-((1-(3-((2,6-dioxopiperidin-3-yl)amino)benzoyl)azetidin-3-yl)methyl)piperidin-4-yl)phenyl)amino)pyrimidin-4-yl)-2-methylbenzyl)-3-isopropoxyazetidine-1-carboxamide]"
44.0,97.0,100.0,"Cc1cc(-c2ccnc(Nc3ccc(N4CC(CN5CCN(c6ccc7c(c6)C(=O)N(C6CCC(=O)NC6=O)C7=O)CC5)C4)cc3)n2)ccc1CNC(=O)N1CC(OC(C)C)C1 (stereo not shown) [Example 112, N-(4-(2-((4-(3-((4-(2-(2,6-dioxopiperidin-3-yl)-1,3-dioxoisoindolin-5-yl)piperazin-1-yl)methyl)azetidin-1-yl)phenyl)amino)pyrimidin-4-yl)-2-methylbenzyl)-3-isopropoxyazetidine-1-carboxamide]"
43.0,97.0,100.0,"Cc1cc(-c2ccnc(Nc3ccc(N4CCC(CN5CCN(c6ccc(NC7CCC(=O)NC7=O)cc6)CC5)CC4)cc3)n2)ccc1CNC(=O)N1CC(OC(C)C)C1 (stereo not shown) [Example 121, N-(4-(2-((4-(4-((4-(4-((2,6-dioxopiperidin-3-yl)amino)phenyl)piperazin-1-yl)methyl)piperidin-1-yl)phenyl)amino)pyrimidin-4-yl)-2-methylbenzyl)-3-isopropoxyazetidine-1-carboxamide]"
